# Experimental data reported in publication PMC6270094, “Dibenzo[1,2,5]thiadiazepines Are Non-Competitive GABAA Receptor Antagonists” (Molecules, 2013).
# Read-outs that look alike come from different tables or passages of the source.
# What was measured:
# [1] = tested on: native GABAA receptors of guinea pig myenteric neurons; assay: Whole-cell recordings of membrane currents induced by GABA (IGABA) in cultured myenteric neurons; format: cell-based; settings: for Percentage of inhibition of GABA-induced inward currents: 100 μM compound, 3 min treatment, mean ± SEM (n); for Voltage dependence of inhibitory effect (−60 mV vs +40 mV) / Time constant (t) of IGABA inhibition / Time to reach maximum inhibition: 100 μM DBTD; for Time constant (t) of IGABA inhibition: 3–180 s, Michaelis–Menten fit; for Time to reach maximum inhibition: after initial exposure; for Amplitude of IGABA with compound inside the pipette: 2b 100 μM internal; for Reversibility of current inhibition on washing: within five minutes of washing; for Effect of maximal antagonist concentration on IGABA: maximal concentrations used
# From the text: Guinea pigs (100–200 g; either male or female) were sacrificed by cervical dislocation and carotid exsanguination. These methods have been approved by the Animal Care Committee of the IPICYT and are in agreement with the published Guiding Principles in the Care and Use of Animals, approved by the American Physiological Society. A segment of ~10 cm of the jejunum was removed and placed in a modified Krebs solution (in mM: NaCl, 126; NaH2PO4, 1.2; MgCl2, 1.2; CaCl2, 2.5; KCl, 5; NaH2CO3, 25; glucose, 11. The sample was gassed under 95% O2 and 5% CO2) and opened longitudinally. A dissecting microscope was used to dissect the mucosa and submucosa layers prior to removing most of the circular muscle layer, leaving the myenteric plexus embedded in a longitudinal layer.
# The cell isolation procedure has been described elsewhere. The myenteric preparation was dissociated by sequential treatment with two enzymatic solutions: the first solution contained papain (0.01 mL·mL^−1 activated with 0.4 mg·mL^−1L-cysteine), and the second solution contained collagenase (1 mg·mL^−1) and dispase (4 mg·mL^−1). The enzymes were removed by washing the neurons with L15 medium, and the neurons were placed on round coverslips coated with sterile rat-tail collagen. The culture medium was varied from minimal medium to essential medium 97.5% containing 2.5% guinea pig serum, 2 mM L-glutamine, 10 U·mL^−1 penicillin, 10 μg·mL^−1 streptomycin, and 15 mM glucose.
# To reduce the effects of the membrane currents other than those mediated by the activation of LGIC, experiments were conducted in the presence of Cs^+ (a potassium channel blocker). […] The holding potential was −60 mV (unless otherwise stated), and the short-term (4–50 h) primary cultures of the myenteric neurons were used to prevent space-clamp problems due to neurite growth. Glass pipettes with a resistance of 2–5 MΩ were prepared as described previously. This low resistance and slight suction inside the pipette during the recordings maintained a low series resistance (around 6 MΩ).
# All experiments were conducted using standard solutions with the following compositions (in mM); inside the pipette: CsCl, 160; EGTA, 10; HEPES, 5; NaCl, 10; ATPMg, 3 and GTP, 0.1; external solution: NaCl, 160; CaCl2, 2; glucose, 11; HEPES, 5 and CsCl, 3. The pH of all solutions was adjusted to 7.3–7.4 using either CsOH (pipette solution) or NaOH (external solution). The seal resistance in the whole-cell mode ranged from 1 to 10 GΩ. The whole-cell current data were recorded on a PC using the AxoScope software (Axon Instruments, Inc.) and were analyzed using the AXOGRAPH software (Molecular Devices, CA, USA). The recording chamber was superfused with an external solution at ~2 mL·min^−1. The solution around the neuron was quickly exchanged during recordings using an eight-tube device. Each tube was connected to a syringe (10 mL) containing either the control or the experimental solution. A control tube was positioned ~300 μm in front of the recorded neuron, and substances were applied externally by abruptly interchanging the tube for another tube containing the control solution plus the drug(s). […] Experimental substances were removed by returning to the control solution. External solutions were applied by gravity, and the height of the syringes was continuously adjusted to minimize changes in the flow rate. The experiments were performed at room temperature (24 ± 1 °C).
# L15 medium, minimum essential medium, Hanks solution, penicillin-streptomycin, and L-glutamine were purchased from GIBCO (Life Technologies Corp., Carlsbad, CA, USA). Collagenase and papain were purchased from Worthington (Worthington Biochemical Corp., Lakewood, NJ, USA), and dispase was purchased from Roche (Indianapolis, IN, USA). […] Pentobarbital-Na was purchased from Lab Ttokkyo, S.A. (México, D.F., Mexico).
# [2] = Solubility under the electrophysiological experimental conditions; format: physicochemical; settings: for solubility: under experimental conditions, read-out: Highest soluble concentration (insoluble above)
# Method: To investigate this possibility, we added 100 μM 2b to the pipette solution (internal) and monitored IGABA, and we applied 2b to the outside of the cells and monitored the inhibitory effects (Figure 6). Experiments were performed using 2b, even though cLog P was less than 2, because 2c and 2d were insoluble under the conditions employed. […] Consistent with these findings, in recordings with 2b in the pipette, the amplitude of IGABA was the same 5 min (−1536 ± 379 pA) and 10 min (−1604 ± 409 pA; n = 4) after obtaining the whole-cell configuration. […] Thus, such an inhibition was as large as that observed without 2b inside the cells (Figure 6B).
# [3] = DBTD 3–1,000 μM, 3 min before 300 μM GABA, fit assuming 100% inhibition, read-out: IC50 for inhibition of IGABA by DBTDs
molecule,measurement,setting,value
"O=S1(=O)Nc2ccccc2Nc2ccccc21 [2a, 6,11-Dihydrodibenzo[c,f][1,2,5]thiadiazepine-5,5-dioxide]",Percentage of inhibition of GABA-induced inward currents,[1]; 300 μM GABA,28.4 ± 1.4 (5) %
same,Solubility remark (potency could not be calculated),[2],solubility problems
"O=S1(=O)Nc2ccc(F)cc2Nc2ccccc21 [2b, 9-Fluoro-6,11-dihydrodibenzo[c,f][1,2,5]thiadiazepine-5,5-dioxide]",Decrease of the maximum of the GABA concentration–response curve,[1]; 100 μM 2b,~ 50%
same,Type of antagonism,"[1]; 100 μM 2b, GABA concentration-response curves",non-competitive
same,Voltage dependence of inhibitory effect (−60 mV vs +40 mV),[1]; 300 μM GABA,identical
same,Time constant (t) of IGABA inhibition,[1]; 300 μM GABA,4.9 s
same,Time to reach maximum inhibition,[1],3 min
same,Percentage of inhibition of GABA-induced inward currents,[1]; 300 μM GABA,50.8 ± 2.1 (12) %
same,Amplitude of IGABA with compound inside the pipette,"[1]; 300 μM GABA, 2 to 3 min after whole cell configuration, n = 4",−1408 ± 344 pA
same,Amplitude of IGABA with compound inside the pipette,[1]; 5 min after whole-cell configuration,−1536 ± 379 pA
same,Amplitude of IGABA with compound inside the pipette,"[1]; 10 min after whole-cell configuration, n = 4",−1604 ± 409 pA
same,IC50,[1]; [3],104 ± 9.2 µM
same,Maximum effect on GABA-activated currents,[1]; at 1 mM,complete inhibition
same,Reversibility of current inhibition on washing,[1],fully reversed
"O=S1(=O)Nc2ccc(Cl)cc2Nc2ccccc21 [2c, 9-Chloro-6,11-dihydrodibenzo[c,f][1,2,5]thiadiazepine-5,5-dioxide]",Voltage dependence of inhibitory effect (−60 mV vs +40 mV),[1]; 300 μM GABA,identical
same,Time constant (t) of IGABA inhibition,[1]; 300 μM GABA,2.6 s
same,Time to reach maximum inhibition,[1],3 min
same,Percentage of inhibition of GABA-induced inward currents,[1]; 300 μM GABA,74.2 ± 3.6 (6) %
same,IC50,[1]; [3],50.4 ± 6.4 µM
same,Interaction with picrotoxin effect,"[1]; simultaneous application, n = 4",neither picrotoxin effect was modified by 2c nor the inhibitory effect of 2c was affected by picrotoxin
same,Reversibility of current inhibition on washing,[1],fully reversed
same,solubility,[2],≤ 300 µM
"O=S1(=O)Nc2ccc(Br)cc2Nc2ccccc21 [2d, 9-Bromo-6,11-dihydrodibenzo[c,f][1,2,5]thiadiazepine-5,5-dioxide]",Voltage dependence of inhibitory effect (−60 mV vs +40 mV),[1]; 300 μM GABA,identical
same,Time constant (t) of IGABA inhibition,[1]; 300 μM GABA,29.3 s
same,Percentage of inhibition of GABA-induced inward currents,[1]; 300 μM GABA,74.2 ± 2.4 (10) %
same,Calculated time required to reach maximum inhibition,"[1]; 100 μM, calculated from fit",17 min
same,Calculated maximum inhibition,"[1]; 100 μM, from Michaelis–Menten fit",87.0 ± 3.0%
same,IC50,[1]; [3],47.6 ± 30.3 µM
same,Reversibility of current inhibition on washing,[1],fully reversed
same,solubility,[2],≤ 300 µM
"COc1ccc2c(c1)Nc1ccccc1S(=O)(=O)N2 [2e, 9-Methoxy-6,11-dihydrodibenzo[c,f][1,2,5]thiadiazepine-5,5-dioxide]",Percentage of inhibition of GABA-induced inward currents,[1]; 300 μM GABA,43.7 ± 3.8 (3) %
same,Solubility remark (potency could not be calculated),[2],solubility problems
"CCOC(=O)c1ccc2c(c1)Nc1ccccc1S(=O)(=O)N2 [2f, Ethyl 6,11-dihydrodibenzo[c,f][1,2,5]thiadiazepine-9-carboxylate-5,5-dioxide]",Percentage of inhibition of GABA-induced inward currents,[1]; 300 μM GABA,47.1 ± 3.7 (7) %
same,Solubility remark (potency could not be calculated),[2],solubility problems
"O=C(O)c1ccc2c(c1)Nc1ccccc1S(=O)(=O)N2 [2g, 6,11-Dihydrodibenzo[c,f][1,2,5]thiadiazepine-9-carboxylic acid 5,5-dioxide]",Percentage of inhibition of GABA-induced inward currents,[1]; 300 μM GABA,16.0 ± 2.4 (6) %
same,melting point,,350 °C
same,Solubility remark (potency could not be calculated),[2],solubility problems
NCCCC(=O)O [GABA],Amplitude of IGABA among different neurons,"[1]; response to 300 μM GABA, −60 mV",0.1–6 nA
"CN1CCc2cc3c(cc2[C@H]1[C@@H]1OC(=O)c2c1ccc1c2OCO1)OCO3 [bicuculline, reference compound]",Effect of maximal antagonist concentration on IGABA,[1],virtually abolished IGABA
same,IC50,[1]; read-out: IC50 for inhibition of IGABA by GABAA inhibitors,10 ± 2 µM
"CCOC(=O)c1ncn2c1CN(C)C(=O)c1cc(F)ccc1-2 [flumazenil, reference compound]",Effect of flumazenil alone on holding current or IGABA,"[1]; 10 μM, 3 min, five neurons, data not shown",did not induce changes in the holding current or IGABA
picrotoxin [reference compound],IC50,"[1]; bicuculline 0.1–100 μM, picrotoxin 3–1,000 μM, data not shown, read-out: IC50 for inhibition of IGABA by GABAA inhibitors",6 ± 1 µM
same,Effect of maximal antagonist concentration on IGABA,[1],virtually abolished IGABA
